Molecular target: T1, JAK1 kinase (Homo sapiens, UniProt P23458)
T1 construct: purchased Invitrogen PV4744
Assay: In vitro inhibitory activity on JAK1 kinase (ADP-Glo Kinase Assay)
Format: biochemical
Settings: JAK1 kinase 4 nM, 1 mM ATP
Description: Test Example 1: Determination of In Vitro Inhibitory Activity of the Compounds of the Present Invention on JAK1 Kinase Experimental materials: JAK1 kinase (Invitrogen, PV4744), ATP (Promega, V915B), ADP-Glo Kinase Assay (Promega, V9101), IRS1 (Signalchem, 140-58-1000). Sample preparation: The compounds of the present invention and the control product were dissolved in DMSO solvent respectively to formulate into 10 mM initial liquid. The maximum concentration of the compound was 10 μM, 3-fold dilution, 10 concentration gradients, and duplicate wells for each concentration gradient. Experimental processs: 0.1 μL of the compound to be tested was transferred into a 384 reaction plate (PE, 6007290) via Echo and centrifuged at 1000 rpm/min for 1 min. 5 μL JAK1 kinase (final concentration of 4 nM) was transferred into the 384 reaction plate, which was then centrifuged at 1000 rpm/min for 1 min, and incubated at 25° C. for 15 min. 5 μL substrate mixture (1 mM ATP, IRS1 0.05 mg/ml, kinase buffer solution) was transferred into the 384 reaction plate, which was then centrifuged at 1000 rpm/min for 1 min, and incubated at 25° C. for 60 min. 10 μL ADP-Glo was transferred into the 384 reaction plate, which was then centrifuged at 1000 rpm/min for 1 min, and incubated at 25° C. for 40 min. 20 μL test solution was transferred into the 384 reaction plate, which was then centrifuged at 1000 rpm/min for 1 min and incubated at 25° C. for 40 min. RLU (Relative luminescence unit) signal was read by using an Envision multifunctional plate reader. The signal intensity was used to characterize the degree of the kinase activity. […] IC50 value of 0-100 nM is shown as A, IC50 value of 100-300 nM is shown as B, IC50 value of 300-1000 nM is shown as C, and IC50 value which is greater than 1000 nM is shown as D. NT means not tested.

T1 sequence (P23458 866-1154 limits assumed): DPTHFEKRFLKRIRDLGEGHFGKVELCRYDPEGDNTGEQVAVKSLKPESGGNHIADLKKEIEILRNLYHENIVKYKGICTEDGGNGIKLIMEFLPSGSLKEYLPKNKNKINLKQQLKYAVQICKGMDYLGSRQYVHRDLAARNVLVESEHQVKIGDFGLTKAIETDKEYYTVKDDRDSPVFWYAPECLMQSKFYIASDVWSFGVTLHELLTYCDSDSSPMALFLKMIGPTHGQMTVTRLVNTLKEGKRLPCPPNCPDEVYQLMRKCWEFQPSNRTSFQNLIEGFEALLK

`O=C(NCC(F)(F)F)N1C2C=C(c3ccnc(Nc4cnn(C5CC5)c4)n3)CC1CC2` (stereo not drawn) [Compound 43, 3-(2-((1-cyclopropyl-1H-pyrazol-4-yl)amino)pyrimidin-4-yl)-N-(2,2,2-trifluoroethyl)-8-azabicyclo[3.2.1]oct-2-ene-8-carboxamide] showed an IC50 of under 100 nM.
In the case of `Cn1cc(Nc2nccc(C3=CC4CCC(C3)N4C3(CC#N)CN(C(=O)NCC(F)(F)F)C3)n2)cn1` (stereo not drawn) [Compound 86, 3-(cyanomethyl)-3-(3-(2-((1-methyl-1H-pyrazol-4-yl)amino)pyrimidin-4-yl)-8-azabicyclo[3.2.1]oct-2-en-8-yl)-N-(2,2,2-trifluoroethyl)azetidine-1-carboxamide], the IC50 is reported as over 1000 nM.
For `Cc1cnc(Nc2cnn(CCO)c2)nc1C1=CC2CCC(C1)N2C(=O)NCC(F)(F)F` (stereo not drawn) [Compound 28, 3-(2-((1-(2-hydroxyethyl)-1H-pyrazol-4-yl)amino)-5-methylpyrimidin-4-yl)-N-(2,2,2-trifluoroethyl)-8-azabicyclo[3.2.1]oct-2-ene-8-carboxamide], the IC50 was under 100 nM.
`Cn1cc(Nc2nccc(C3=CC4CCC(C3)N4C(=O)CC(F)(F)F)n2)cn1` (stereo not drawn) [Compound 65, 3,3,3-trifluoro-1-(3-(2-((1-methyl-1H-pyrazol-4-yl)amino)pyrimidin-4-yl)-8-azabicyclo[3.2.1]oct-2-en-8-yl)-1-acetone] showed an IC50 of 100 to 300 nM.
Work on `Cn1cc(Nc2nccc(C3=CC4CCC(C3)N4C(=O)C3CCC(F)(F)C3)n2)cn1` (stereo not drawn) [Compound 70, (3,3-difluorocyclopentyl)(3-(2-((1-methyl-1H-pyrazol-4-yl)amino)pyrimidin-4-yl)-8-azabicyclo[3.2.1]oct-2-en-8-yl)methanone] yielded an IC50 of under 100 nM.
`NC(=O)C1(n2cc(Nc3nccc(C4=CC5CCC(C4)N5C(=O)[C@@H]4CC4(F)F)n3)cn2)CC1` (stereo partly drawn) [Compound 39, 1-(4-((4-(8-((S)-2,2-Difluorocyclopropane-1-carbonyl)-8-azabicyclo[3.2.1]oct-2-en-3-yl)pyrimidin-2-yl)amino)-1H-pyrazol-1-yl)cyclopropane-1-carboxamide] was tested, and the IC50 was over 1000 nM.
With `Cn1cc(Nc2nccc(C3=CC4CCC(C3)N4C(=O)CC3CC(F)(F)C3)n2)cn1` (stereo not drawn) [Compound 79, 2-(3,3-difluorocyclobutyl)-1-(3-(2-((1-methyl-1H-pyrazol-4-yl)amino)pyrimidin-4-yl)-8-azabicyclo[3.2.1]oct-2-en-8-yl)-1-acetone] the IC50 was under 100 nM.
Compound `Cn1cc(Nc2nccc(C3=CC4CCC(C3)N4C(=O)NC3COC3)n2)cn1` (stereo not drawn) [Compound 15, 3-(2-((1-methyl-1H-pyrazol-4-yl)amino)pyrimidin-4-yl)-N-(oxetan-3-yl)-8-azabicyclo[3.2.1]oct-2-ene-8-carboxamide] has an IC50 of 300 to 1000 nM.
`Cn1cc(Nc2ncc(C#N)c(C3=CC4CCC(C3)N4C(=O)NCC(F)(F)F)n2)cn1` (stereo not drawn) [Compound 35, 3-(5-cyano-2-((1-methyl-1H-pyrazol-4-yl)amino)pyrimidin-4-yl)-N-(2,2,2-trifluoroethyl)-8-azabicyclo[3.2.1]oct-2-ene-8-carboxamide] showed an IC50 of 100 to 300 nM.
In the case of `Cn1cc(Nc2nccc(C3=CC4CCC(C3)N4C(=O)C(F)(F)C3CC3)n2)cn1` (stereo not drawn) [Compound 75, 2-cyclopropyl-2,2-difluoro-1-(3-(2-((1-methyl-1H-pyrazol-4-yl)amino)pyrimidin-4-yl)-8-azabicyclo[3.2.1]oct-2-en-8-yl)ethan-1-one], the IC50 is reported as 100 to 300 nM.
With `Cn1cc(Nc2nccc(C3=CC4CCC(C3)N4C(=O)C34CC(F)(C3)C4)n2)cn1` (stereo not drawn) [Compound 74, (3-fluorobicyclo[1.1.1]pentan-1-yl)(3-(2-((1-methyl-1H-pyrazol-4-yl)amino)pyrimidin-4-yl)-8-azabicyclo[3.2.1]oct-2-en-8-yl)methanone] the IC50 was over 1000 nM.
`Cn1cc(Nc2nccc(C3=CC4CCC(C3)N4S(=O)(=O)NCC#N)n2)cn1` (stereo not drawn) [Compound 4, N-(cyanomethyl)-3-(2-((1-methyl-1H-pyrazol-4-yl)amino)pyrimidin-4-yl)-8-azabicyclo[3.2.1]oct-2-ene-8-sulfonamide] was tested, and the IC50 was over 1000 nM.
`Cn1cc(Nc2nccc(C3=CC4CCC(C3)N4C(=O)CC#N)n2)cn1` (stereo not drawn) [Compound 61, 3-(3-(2-((1-methyl-1H-pyrazol-4-yl)amino)pyrimidin-4-yl)-8-azabicyclo[3.2.1]oct-2-en-8-yl)-3-oxopropionitrile] was tested, and the IC50 was 100 to 300 nM.
`Cn1cc(Nc2nccc(C3=CC4CCC(C3)N4C(=O)C34CC(C(F)(F)F)(C3)C4)n2)cn1` (stereo not drawn) [Compound 71, (3-(2-((1-methyl-1H-pyrazol-4-yl)amino)pyrimidin-4-yl)-8-azabicyclo[3.2.1]oct-2-en-8-yl)(3-(trifluoromethyl)bicyclo[1.1.1]pentan-1-yl)methanone] showed an IC50 of over 1000 nM.
With `O=C(NCC(F)(F)F)N1C2C=C(c3nc(Nc4cnn(C(F)F)c4)ncc3F)CC1CC2` (stereo not drawn) [Compound 24, 3-(2-((1-(difluoromethyl)-1H-pyrazol-4-yl)amino)-5-fluoropyrimidin-4-yl)-N-(2,2,2-trifluoroethyl)-8-azabicyclo[3.2.1]oct-2-ene-8-carboxamide] the IC50 was under 100 nM.
`Cc1cnc(Nc2cnn(C)c2)nc1C1=CC2CCC(C1)N2C(=O)[C@@H]1CC1(F)F` (stereo partly drawn) [Compound 22, ((S)-2,2-difluorocyclopropyl)(3-(5-methyl-2-((1-methyl-1H-pyrazol-4-yl)amino)pyrimidin-4-yl)-8-azabicyclo[3.2.1]oct-2-en-8-yl)methanone] showed an IC50 of under 100 nM.
Work on `Cn1cc(Nc2nccc(C3=CC4CCC(C3)N4C(=O)C3CCOC3)n2)cn1` (stereo not drawn) [Compound 76, (3-(2-((1-methyl-1H-pyrazol-4-yl)amino)pyrimidin-4-yl)-8-azabicyclo[3.2.1]oct-2-en-8-yl)(tetrahydrofuran-3-yl)methanone] yielded an IC50 of 100 to 300 nM.
For `Cn1cc(Nc2nccc(C3=C[C@@H]4CC[C@H](C3)N4C(=O)NCC(F)(F)F)n2)cn1` [Compound 3-a, (1S,5R)-3-(2-((1-methyl-1H-pyrazol-4-yl)amino)pyrimidin-4-yl)-N-(2,2,2-trifluoroethyl)-8-azabicyclo[3.2.1]oct-2-ene-8-carboxamide], the IC50 was under 100 nM.
For `Cn1cc(Nc2ncc(F)c(C3=CC4CCC(C3)N4C(=O)[C@@H]3CC3(F)F)n2)cn1` (stereo partly drawn) [Compound 21, ((S)-2,2-difluorocyclopropyl)(3-(5-fluoro-2-((1-methyl-1H-pyrazol-4-yl)amino)pyrimidin-4-yl)-8-azabicyclo[3.2.1]oct-2-en-8-yl)methanone], the IC50 was under 100 nM.
For `Cn1cc(Nc2nccc(C3=CC4CCC(C3)N4C(=O)[C@@H]3C[C@H]3C#N)n2)cn1` (stereo partly drawn) [Compound 47, (1R,2R)-2-(3-(2-((1-methyl-1H-pyrazol-4-yl)amino)pyrimidin-4-yl)-8-azabicyclo[3.2.1]oct-2-ene-8-formyl)cyclopropane-1-carbonitrile], the IC50 was 100 to 300 nM.
In the case of `Cn1cc(Nc2nccc(C3=CC4CCC(C3)N4C3(CC#N)CN(C(=O)[C@@H]4CC4(F)F)C3)n2)cn1` (stereo partly drawn) [Compound 85, 2-(1-((S)-2,2-difluorocyclopropane-1-carbonyl)-3-(3-(2-((1-methyl-1H-pyrazol-4-yl)amino)pyrimidin-4-yl)-8-azabicyclo[3.2.1]oct-2-en-8-yl)azetidin-3-yl)acetonitrile], the IC50 is reported as over 1000 nM.
Compound `Cn1cc(Nc2ncc(F)c(C3=C[C@@H]4CC[C@H](C3)N4C(=O)NCC(F)(F)F)n2)cn1` (single isomer, unassigned) [Compound 12-a] has an IC50 of under 100 nM.
`Cn1cc(Nc2nccc(C3=CC4CCC(C3)N4C(=O)CC(F)F)n2)cn1` (stereo not drawn) [Compound 66, 3,3-difluoro-1-(3-(2-((1-methyl-1H-pyrazol-4-yl)amino)pyrimidin-4-yl)-8-azabicyclo[3.2.1]oct-2-en-8-yl)-1-acetone] was tested, and the IC50 was 100 to 300 nM.
Compound `C[C@@H](NC(=O)N1C2C=C(c3ccnc(Nc4cnn(C)c4)n3)CC1CC2)C(F)(F)F` (stereo partly drawn) [Compound 56, 3-(2-((1-Methyl-1H-pyrazol-4-yl)amino)pyrimidin-4-yl)-N-((R)-1,1,1-trifluoropropane-2-yl)-8-azabicyclo[3.2.1]oct-2-ene-8-carboxamide] has an IC50 of 300 to 1000 nM.
`O=C([C@@H]1CC1(F)F)N1C2C=C(c3ccnc(Nc4cnn(C5CC5)c4)n3)CC1CC2` (stereo partly drawn) [Compound 36, (3-(2-((1-cyclopropyl-1H-pyrazol-4-yl)amino)pyrimidin-4-yl)-8-azabicyclo[3.2.1]oct-2-en-8-yl)((S)-2,2-difluorocyclopropyl)methanone] was tested, and the IC50 was 100 to 300 nM.
In the case of `Cn1cc(Nc2nccc(C3=CC4CCC(C3)N4C(=O)N3CC[C@@H](C#N)C3)n2)cn1` (stereo partly drawn) [Compound 7, (R)-1-(3-(2-((1-methyl-1H-pyrazol-4-yl)amino)pyrimidin-4-yl)-8-azabicyclo[3.2.1]oct-2-ene-8-carbonyl)pyrrolidine-3-nitrile], the IC50 is reported as over 1000 nM.
`Cn1cc(Nc2nccc(C3=CC4CCC(C3)N4C(=O)C3(C)CC3(F)F)n2)cn1` (stereo not drawn) [Compound 48, (2,2-difluoro-1-methylcyclopropyl)(3-(2-((1-methyl-1H-pyrazol-4-yl)amino)pyrimidin-4-yl)-8-azabicyclo[3.2.1]oct-2-en-8-yl)methanone] gave an IC50 of over 1000 nM.
